Reference: paper PMC7356998, “Intrinsic Dissolution Rate Profiling of Poorly Water-Soluble Compounds in Biorelevant Dissolution Media” (Pharmaceutics, 2020)
In brackets after ≈: the same amount, converted by molar mass.

What was measured:
[1] = Intrinsic dissolution rate from miniaturized discs (DIDR), μDiss Profiler; type: physicochemical; details: disc (D), 100 rpm, mean ± SD
Description: Dissolution experiments were carried out in a small-scale dissolution apparatus using in situ fiber optic probes to measure the amount of drug dissolved over time by UV absorbance (μDiss Profiler, Pion Inc., Billerica, MA, USA). Drug dissolution was carried out from suspensions (S) or discs (D) depending on the solubility of the compound in the biorelevant media studied (Table 3). […] Standard curves were established by adding aliquots of DMSO stock solutions of the compounds to 3 mL of biorelevant medium, respectively. Dissolution media were prepared following the protocol provided by Biorelevant.com Ltd. and used within 48 h after their preparation. The media were incubated at 37 °C for at least one hour prior to use in the dissolution experiments. The hydrodynamic diameter of the micelles/vesicles formed in the biorelevant media were measured by DLS (Table 2). […] Stirring was turned off while measuring the UV absorbance for each aliquot and the standard curve was established based on six aliquots. […] Intrinsic dissolution rates will henceforth be denoted 'IDR' for both SIDR and DIDR values determined in this study (see Table 3 for details).

physchem = details: 37 °C, pH 6.5, fassif, thermodynamic from solid
Description: In these experiments, an excess amount of drug was added to triplicate Eppendorf tubes containing 1 mL of the respective dissolution medium. The tubes were vortexed and placed in a 37 °C incubator. Samples for HPLC analysis were taken 24, 48, and 72 h (triplicates at each time point) after initiation of the experiment to ensure that equilibrium had been reached. The samples were centrifuged at 37 °C, 23,000 g for 10 min (Heraeus Megafuge 8R, Thermo Scientific, Waltham, MA, USA). The supernatant was sampled, diluted 1:1 with acetonitrile, and kept refrigerated until HPLC analysis. […] The injection volumes were 20 μL.

IDRFaSSIF-V1 ([1]; FaSSIF-V1 pH 6.5, 37 °C): 3.2 ±0.1 μg/min/cm^2
IDRFaSSIF-V2 ([1]; FaSSIF-V2 pH 6.5, 37 °C): 6.6 ± 0.8 μg/min/cm^2
solubility thermodynamic (physchem): 0.0187 ± 0.0013 mg/mL (≈ 63.1 µM)
SMILES: C#C[C@]1(O)CC[C@H]2[C@@H]3CCc4cc(O)ccc4[C@H]3CC[C@@]21C [Ethinylestradiol]
